Where “and” joins values, the source holds several entries; their conditions need not be identical. Equal values may be shown once. Entries after “also recorded” stand apart in the source; their conditions may differ. Read-outs that look alike come from different tables or passages of the source.
Columns and labels:
[1] = test system: A2780 (ovarian carcinoma cell line); assay: MTS cell viability assay, A2780; format: cell-based, human; details: 48 h of exposure, mean ± SEM
[2] = test system: HCT116-DoxR cells; assay: Autophagy induction, Green Detection Reagent, flow cytometry; details: 48 h, complexes at IC50, cisplatin 5 μM, Dox 6 μM
[3] = test system: HCT116 (colorectal carcinoma cell line); assay: MTS cell viability assay, HCT116; format: cell-based, human; details: 48 h of exposure, mean ± SEM
[4] = test system: caspase-8; assay: Caspase-8 activity, IETD-pNA cleavage; format: cell-based, human; details: HCT116-DoxR, 48 h; complexes at IC50, cisplatin 5 μM
Description: Since caspase-8 is an initiator caspase of the extrinsic apoptotic pathway, its activity was evaluated after HCT116-DoxR cells were exposed to complexes 5 and 8 (Figure 8).
The chromogenic substrate IETD-pNA, which results from the conjugation between the peptide IETD (Ile-Glu-Thr-Asp) and the chromophore p-nitroanilide (pNA), is cleaved by caspase-8 and releases pNA, which can be detected by measuring absorbance at 400 nm.[99] Therefore, if complexes 5 and 8 induce cell death through the extrinsic apoptotic pathway, there is an increase in absorbance at 400 nm compared to the control sample, corresponding to an increase in caspase-8 activity that is translated into the cleavage of the substrate IETD-pNA (Figure 8).
(§1) Antibody; Cell Signalling Technology, USA).
(§2) Assay Kit (Abnova Corporation, Walnut, CA, USA).
(§3) vanadium complexes at its IC50 concentrations.
(§4) Cells were then incubated
(§5) Flow Cytometer (Life Technologies, Carlsbad, USA).
(§6) HCT116-DoxR cell line was cultivated

[5] = test system: HCT116-DoxR cells; assay: Cell cycle progression, PI, flow cytometry; details: HCT116-DoxR, 3, 9, 24, 32 h; complexes at IC50, cisplatin 5 μM, Dox 6 μM
[6] = test system: HCT116-DoxR cells; assay: Alexa Fluor 488-annexin V/PI apoptosis assay, flow cytometry; format: cell-based, human; details: 48 h; for early apoptosis / late apoptosis / necrosis / percentage of apoptosis (total) / viable cells: complexes at IC50, cisplatin 5 μM, Dox 6 μM; for increase of percentage of apoptotic cells normalized to DMSO: IC50
[7] = test system: HCT116-DoxR cells; assay: ROS production, H2DCF-DA, flow cytometry; format: cell-based, human; details: 48 h, IC50
Description: Thus, the level of ROS present in HCT116-DoxR cells after their exposure to vanadium complexes was quantified (Figure 10). The probe 2′,7′-dichlorohydrofluorescein diacetate (H2DCF-DA), which diffuses into cells and is deacetylated by cellular esterases resulting in a nonfluorescent compound, was used. Inside the cell, this molecule is oxidized by ROS and then originates the fluorescent molecule 2′,7′-dichlorofluorescein (DCF) that can be detected by flow cytometry.[103]
(§7) finishing the 48 h period.
(§8) Attune® Cytometric software.
(§9) Butyl hydroperoxide) were used as controls.
(§10) Cells were later analysed
(§11) (double thymidine block).
(§12) After this, the pellet was resuspended in
Control solutions were also prepared, namely a […]

[8] = test system: BAX; assay: Western blot, BAX expression; format: cell-based, human; details: HCT116-DoxR, 48 h; for BAX/BCL-2 ratio normalized to DMSO control: IC50; for BAX protein expression vs DMSO control: IC50, normalized to β-actin
[9] = test system: chick chorioallantoic membrane; assay: Ex ovo chick chorioallantoic membrane (CAM) assay, angiogenesis; format: in vivo, chicken; details: chick embryo CAM; for anti-/pro-angiogenic potential, newly formed blood vessels, 48 h: IC50, 48 h
Text: The ex ovo CAM assay was used to evaluate the role of vanadium complexes in the process of angiogenesis. CAM is a chicken extraembryonic membrane and is often used to study the process of angiogenesis in vivo as it has a high density of blood and lymphatic vessels.[120] This assay consists of analyzing certain vascularized areas of the chorioallantoic membrane of a chicken embryo. Initially, o-rings are placed covering those membrane vascularized areas being then exposed to the complexes. Pictures are then taken at 0, 24, and 48 h after exposure to the complexes and the number of blood vessels present at each hour are counted and compared. The results can be observed in Figure 15.
Ex-ovo Chick Chorioallantoic Membrane (CAM) assay
The ex-ovo chorioallantoic membrane (CAM) assay was performed in order to evaluate the angiogenic potential of vanadium complexes, as already described in literature11–13. Firstly, chicken embryos were […]
concentration of each complex dissolved in PBS 1x was placed in the centre of O-rings. Beside each complex, DMSO 0.1% (v/v) was used as a control and complex distribution in chicken embryos was always performed in a different order. The embryos were incubated for 48 h at 37 °C and images were […]
Newly formed blood vessels were later manually counted, via ImageJ software.
The ex-ovo CAM assay fulfils the Directive 2010/63/ EU of the European Parliament for protection of animal models for scientific purposes.
All data are presented as Mean ± SEM from at least two independent experiments unless otherwise specified. One-way ANOVA or Student’s t-test were used to determine statistical significance (p < 0.05) using the GraphPad Prism 8 software (GraphPad Software, San Diego, CA, USA).

[10] = n-octanol/PBS buffer partition coefficient, shake-flask, UV-vis; details: room temperature
Description: The lipophilicity of V(IV) complexes was investigated using the classical shake-flash method at room temperature in the two-phase system of immiscible solvents n-octanol/PBS buffer.[69],[70] The transfer of V(IV) compounds from the aqueous environment to the organic phase was monitored by UV–vis spectroscopy.
The n-octanol/PBS buffer partition coefficients (logP) were determined by shake-flash approach, and
the transfer of V(IV) compounds from the aqueous environment to the organic phase was monitored
by UV-Vis spectroscopy5,6. Solutions of 1–10 of concentrations in the range 10-100 M were prepared
in PBS buffer saturated with n-octanol from the freshly-prepared stock solution in DMSO (5mM or 50
mM), and their UV-Vis spectra were recorded. The solution of 1–10 in aqueous buffer (3 ml) were
mixed with n-octanol saturated with pH 7.4 aqueous buffer (3 ml), and the obtained mixtures were
stirred in a mechanical shaker for 30 min. The mixtures were allowed to stand at room temperature for
24 h, and after this time, the aqueous phases were separated, and the concentrations of 1–10 were
determined by measuring their UV-Vis spectra. For each complex, the highest energy absorption band was taken into consideration to determine the sample concentration.

[11] = test system: fibroblasts; assay: Cell migration (wound healing) assay; format: cell-based, human; details: 24 h, IC50
Description: In the wound healing assay, a region without cells is generated, being then exposed to the compounds, and the cell migration is analyzed after 24 h, to determine the cells’ ability to proliferate and refill the gap previously formed (Figure 14).[116]
as §7, §8, §9, §10, §11, §12
Control solutions were also prepared, namely a
DMSO only. […] The UV-Vis spectra were […]

[12] = test system: normal human primary dermal fibroblasts; assay: MTS cell viability assay, fibroblasts; details: read-out: IC50 fibroblasts; 48 h of exposure, MTS, mean ± SEM
Description: (§13) To assess the cytotoxicity of vanadium complexes in tumor and healthy cells, the MTS assay, a colorimetric method that allows the quantification of viable cells present in solution,[71] was performed.
Cell culture and maintenance
(§14) The A2780 cancer cell line (ovarian carcinoma) was purchased from Sigma-Aldrich (Madrid, Spain)
(§15) while HCT116 cancer cell line (colorectal carcinoma) and the normal human primary dermal
(§16) fibroblasts were obtained from American Type Culture Collection (ATCC®, Manassas, VA, USA).
(§17) HCT116 Dox-resistant cell line (HCT116-DoxR) was derived from HCT116 parental cells, as
(§18) All cells were cultured in Dulbecco’s modified Eagle medium (DMEM), except the A2780 cell line
(§19) which was cultured in RPMI (Roswell Park Memorial Institute) medium. Both media were
(§20) supplemented with 10% (v/v) fetal bovine serum (FBS) and 1% (v/v) of a Pen/Strep
(§21) (Penicillin/Streptomycin) solution. HCT116-DoxR cell medium was additionally supplemented with
(§22) All media and supplements were purchased from Thermo Fischer Scientific (Waltham, Massachusetts, USA).
(§23) (SANYO CO2 Incubator, Electric Biomedical Co., Osaka, Japan).
(§24) HCT116, HCT116-DoxR and A2780 cancer cell lines and normal human primary fibroblasts were
(§25) used in cellular viability assays. Cells were seeded in a density of 0.75×10^5 cells/mL into 96 well-
(§26) After the 24 h of incubation, complexes were
(§27) weight and immediately solubilized in 100% (v/v) DMSO and then, diluted for the final concentration
(§28) with cell culture medium. The medium in each 96 well-plates will be replaced by fresh medium
(§29) containing each vanadium complex (concentrations ranging from 0.01 µM to 50 µM). Culture medium
(§30) with 0.1% (v/v) DMSO and 0.4 µM Dox were used as negative and positive controls, respectively.

[13] = test system: HCT116-DoxR (doxorubicin-resistant colorectal carcinoma cell line); assay: MTS cell viability assay, HCT116-DoxR;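 also: MTS colorimetric quantification of viable cells, with loss of viability tracked as complex concentration rises, in DMEM-grown HCT116-DoxR, a line whose resistance involves P-glycoprotein efflux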
Description: as §13
Cell culture and maintenance
as §14, §15, §16, §17, §18, §19, §20, §21, §22, §23, §24, §25, §26, §27, §28, §29, §30

[14] = test system: HCT116-DoxR spheroids; assay: MTS assay in 3D spheroids; format: cell-based, human; details: HCT116-DoxR spheroids 6- to 8-day-old, 48 h
[15] = target: T1, BSA (bovine serum albumin) (Bos taurus, UniProt P02769); assay: BSA binding, UV-vis and fluorescence spectroscopy; details: for BSA fluorescence with increasing complex concentrations: BSA 20 μM, complexes 10-100 μM, pH 7.0, 24 h, 37 °C; for interaction with BSA protein: UV-vis and fluorescence spectroscopy
T1 construct: I (1–195), II (196–383), and III (384–583)
T1 sequence (P02769 25-607): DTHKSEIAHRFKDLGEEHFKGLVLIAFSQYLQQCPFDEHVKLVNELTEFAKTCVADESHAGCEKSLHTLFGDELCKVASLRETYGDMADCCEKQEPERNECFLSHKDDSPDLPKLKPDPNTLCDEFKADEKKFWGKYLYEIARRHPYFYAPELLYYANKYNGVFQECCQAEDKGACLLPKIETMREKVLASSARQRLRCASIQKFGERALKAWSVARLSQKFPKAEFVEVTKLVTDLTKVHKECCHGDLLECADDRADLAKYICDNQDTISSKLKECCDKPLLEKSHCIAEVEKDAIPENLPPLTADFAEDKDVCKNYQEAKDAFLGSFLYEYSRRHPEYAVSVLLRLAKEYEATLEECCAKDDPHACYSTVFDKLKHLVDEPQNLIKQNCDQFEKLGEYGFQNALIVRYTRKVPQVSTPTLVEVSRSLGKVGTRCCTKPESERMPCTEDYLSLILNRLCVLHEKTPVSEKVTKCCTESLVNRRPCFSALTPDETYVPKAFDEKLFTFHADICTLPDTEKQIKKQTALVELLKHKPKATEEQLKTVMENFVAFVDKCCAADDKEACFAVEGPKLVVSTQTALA

[16] = Stability and solubility in RPMI culture medium, UV-vis; format: physicochemical; details: UV-vis at 0, 24, 48 h
[17] = test system: cleaved PARP1; assay: Western blot, cleaved PARP1 expression; format: cell-based, human; details: HCT116-DoxR, 48 h, IC50
[18] = test system: HCT116-DoxR cells; assay: Cell internalization by ICP-AES; format: cell-based, human; details: 3 h exposure to 10x IC50, ICP-AES
[19] = test system: BCL-2; assay: Western blot, BCL-2 expression; format: cell-based, human; details: HCT116-DoxR, 48 h, IC50, normalized to β-actin
[20] = test system: HCT116-DoxR cells; assay: Mitochondrial membrane potential, JC-1, flow cytometry; format: cell-based, human; details: 48 h, complexes at IC50, cisplatin 5 μM, Dox 6 μM
Text: The use of the fluorescent probe JC-1 (5,5,6,6′-tetrachloro-1,1′,3,3′ tetraethylbenzimidazolcarbocyanine iodide) allows the evaluation of ΔΨm, as the aggregation of the probe changes whether the mitochondrial membrane is hyperpolarized or depolarized.[95],[96] In healthy cells with high mitochondrial potential, JC-1 enters and accumulates inside mitochondria, where it forms complexes known as J-aggregates, emitting red fluorescence. However, in cells with a loss of ΔΨm, JC-1 is unable to remain in the mitochondria and exits to the cytoplasm, accumulating in its monomeric form and emitting green fluorescence. Thus, the ratio of the red/green fluorescence intensities can be used to indicate polarization (ratio > 1) or depolarization (ratio < 1) of the mitochondrial membrane (Figure 7).[94],[95]
as §1, §2, §3, §4, §5, §6

[21] = read-out: IC50 2D, HCT116-DoxR 2D culture, 48 h
[22] = read-out: IC50 HCT116-DoxR, 48 h of exposure, MTS, mean ± SEM

Compound	IC50 [1]	increase of autophagic vesicles over the control [2]	IC50 [3]	caspase-8 activity vs 0.1% DMSO [4]	cell cycle arrest / cytostatic effect [5]	early apoptosis [6]	late apoptosis [6]	necrosis [6]	percentage of apoptosis (total) [6]	ROS production, increase over the DMSO control [7]	anti-/pro-angiogenic potential, newly formed blood vessels, 48 h [9]	log P [10]	cell migration (wound remission) [11]	IC50 [12]	IC50 [13, 21]	IC50 [13, 22]	IC50 [14]	BSA fluorescence with increasing complex concentrations [15]	interaction with BSA protein [15]	stability in RPMI culture medium [16]	also measured
N.N.[Cl][Pt][Cl] [cisplatin, reference compound]	1900 ± 200 nM	~2.3 fold	15600 ± 5300 nM	higher level of caspase-8	cytostatic effect	31.9 ± 4.6%	10.0 ± 4.2%	1.6 ± 0.7%	~40%	–	–	–	–	–	–	–	–	–	–	–	–
COc1ccnc2c1ccc1c(OC)ccnc12.O=C1[O][V](=[O])[O]C(=O)c2cccc1n2 [complex 5, [VO(dipic)(4,7-(CH3O)2-phen)]]	1300 ± 10 nM	~2.3 fold	1800 ± 40 nM	higher level of caspase-8	no cell cycle arrest	59.4 ± 3.6%	11.5 ± 5.0%	0.8 ± 0.6%	about 70%	2.5 fold	no anti-/pro-angiogenic potential	0.55	do not promote cell migration	3100 ± 70 nM	200 ± 100 nM	200 ± 100 nM	3500 ± 200 nM	high decrease in BSA fluorescence	capable of interacting	no structural changes	BAX/BCL-2 ratio normalized to DMSO control [8]: ~1; BAX protein expression vs DMSO control [8]: increased expression; increase in expression of cleaved PARP1 vs 0.1% DMSO [17]: 5 fold; Concentration in cells [18]: 1.590 µM; Internalized percentage [18]: 98.55% and ~100%; BCL-2 protein expression vs DMSO control [19]: increased expression; increase of percentage of apoptotic cells normalized to DMSO [6]: 2.5 fold; viable cells [6]: 28.3 ± 3.5%
O=C1[O][V](=[O])[O]C(=O)c2cccc1n2.c1ccc(-c2ccnc3c2ccc2c(-c4ccccc4)ccnc23)cc1 [complex 6, [VO(dipic)(4,7-Ph2-phen)]]	200 ± 90 nM	~2.3 fold	900 ± 30 nM	not detected	no cell cycle arrest	57.7 ± 5.8%	13.4 ± 5.9%	1.2 ± 0.9%	about 70%	2.6 fold	no longer present; also recorded: no anti-/pro-angiogenic potential	0.57	do not promote cell migration	4000 ± 50 nM	200 ± 50 nM	200 ± 50 nM	3100 ± 420 nM	high decrease in BSA fluorescence	capable of interacting	no spectral changes over time	BAX/BCL-2 ratio normalized to DMSO control [8]: ~3; BAX protein expression vs DMSO control [8]: increase; anti-angiogenic potential, newly formed blood vessels, 24 h ([9]; IC50, 24 h): some anti-angiogenic potential; JC-1 red/green fluorescence intensity ratio normalized to DMSO [20]: ~0.69; solubility in RPMI culture medium over time [16]: loss of solubility over time; increase in expression of cleaved PARP1 vs 0.1% DMSO [17]: 8 fold; Concentration in cells [18]: 1.672 µM; Internalized percentage [18]: 98.32% and ~100%; BCL-2 protein expression vs DMSO control [19]: decrease; increase of percentage of apoptotic cells normalized to DMSO [6]: 2.5 fold; viable cells [6]: 27.7 ± 7.9%
O=C1[O][V](=[O])[O]C(=O)c2cccc1n2.c1cnc2c(c1)ccc1cccnc12 [complex 8, [VO(dipic)(phen)]]	2100 ± 30 nM	~2.3 fold	3700 ± 10 nM	higher level of caspase-8	–	44.8 ± 6.2%	4.5 ± 2.1%	0.9 ± 0.6%	about 50%	2.4 fold	no anti-/pro-angiogenic potential	0.40	do not promote cell migration	8600 ± 20 nM	1300 ± 40 nM	1300 ± 40 nM	11700 ± 620 nM	high decrease in BSA fluorescence	capable of interacting	no spectral changes over time	Concentration in cells [18]: 6.705 µM; increase of percentage of apoptotic cells normalized to DMSO [6]: 1.7 fold; viable cells [6]: 49.8 ± 6.0%
